Results as given in patent publication EP0672419A1, “BLOOD PRESSURE REGULATOR” (Asahi Kasei Kogyo Kabushiki Kaisha, priority 1991, dated 1995).

Columns and labels:
[1] = test system: adult mongrel dogs; test: Induced hypotension in ten halothane-anesthetized dogs, average arterial blood pressure kept at 60 mmHg for 60 min (Example 6); format: in vivo, dog; conditions: mean ± S.D.
Procedure: Adult mongrel dog, mean body weight 12.7 ± 3.1 kg, was anesthesized with pentobarbital 25 mg/kg, intratarcheally cannulated and maintained anesthetic condition by 0.87% halothane-oxygen (1 MAC, minimum anesthetic concentration). Respiration was controlled, by using respirator (Harvard Corp., Model 613E ) at Paco₂ 35±5 mmHg.
Catheters were introduced to right femoral vein and artery for monitering arterial blood pressure, arterial blood gas analysis and infusion, and left cardiac catheter was introduced to left femoral […] to monitor left ventricular pressure. The changes in left ventricular pressure were differentiated continuously using a pressure processor (Nihon Koden Co., EQ-601G) to measure a maximum left ventricular systolic ratio (LV dp/dt max). The active ingredient of the present invention was administered to left femoral vein. Pulmonary arterial catheter (7F, Swan-Ganz® catheter) was introduced through right external jugular vein to monitor pulmonary artery pressure (PAP), paulmonary arterial wedge pressure (pulmonary capillary wedge pressure, PCWP) and cardiac output (CO). Pressure was monitored by using disporsable pressure monitoring kit (Gould Corp.), and electrocardiogram, arteriala pressure, left ventricle pressure (LVP) and maximum left ventricular systolic ratio (LV dp/dt max) were monitored by polygraph (Nihon Koden Co.) . Cardiac output (CO) was measured by thermal dilution method using cardiac output monitor (Nihon Koden Co Model MTC6210). Blood gas analysis was made by using automatic blood gas analyser (Radiometer Corp. ABL3). Mean artery pressure (MAP), cardiac index(CI) stroke volume index (SI), systemic vascular resistance (SVR), pulmonary vascular resistance (PVR), left ventricle stroke work index (LVSWI) and coronary perfusion pressure (CPP) were calculated by standard calculation equations, respectively.
To maintain low blood pressure, the active ingredient was intraveneously administered for 60 minutes with maintaining maximum dose at 40 µg/kg and adjusting to maintain mean arteraial pressure at 50 mmHg. Physiological saline was used for maintenance infusion and administered in combination with the active ingredient at 7 ml/kg/hr. At blood sampling two fold volume of hydroxyethylstarch (6-HES) was supplementary administered. Body temperature was maintained at 37 ± 1°C by covering with blanket.
Example 5 was repeated by substantially almost same manner using ten adult mongrel dogs, mean body weight 14.7±2.1 kg, applying same anesthetic condition with maintaining artificially hypotensive with average arterial blood pressure at 60 mmHg for 60 min., and administering the active ingredient desalanyl-deamino-c-CGRP.
A value at time more than 60 minutes passed after completing the start of the experiment and stabilizing a depth of anesthesia and blood flow, was set as control (S₁). Monitorings were performed at 30 min. and 60 min. under reduced blood pressure in induced hypotension, and at 10 min. and 30 min. after terminating the reduced blood pressure in induced hypotension (after stopping administration), for totally five points of time.
Results are shown by mean ± S.D.
Amount of the active ingredient for maintaining average arterial blood pressure at 60 mmHg for 60 minutes was 5 µg-115 µg/kg.

[2] = test system: adult mongrel dogs; test: Phenylephrine-induced hypertension in four anesthetized dogs (Example 8); format: in vivo, dog; conditions: 10 µg/kg/hr on top of phenylephrine 10 µg/kg/min
Procedure: Example 6 was repeated by substantially almost same manner using four adult mongrel dogs, mean body weight 12.3±3.0 kg, applying same anesthetic condition. After setting up the experiment at more than 60 minutes passing and confirming to stabilize the depth of anesthesia and blood flow, phenylephrine (hypertensor) 10 µg/kg/min was administered.
Further after 10 minutes passed, the active ingredient, desalanyl-deamino-c-CGRP 10 µg/kg/hr was administered and at 10 min. and 20 min. after administration of the active ingredient, heart rate (HR) and mean a artery pressure (MAP) were measured.

[3] = after terminating reduced blood pressure 10 min.
[4] = after terminating reduced blood pressure 30 min.
[5] = reduced blood pressure 30 min., MAP kept at 60 mmHg
[6] = reduced blood pressure 60 min., MAP kept at 60 mmHg
[7] = after administ. of CGRP 10 min(20min)
[8] = after administ. of CGRP 20 min(30min)

## desalanyl-deamino-c-CGRP
[1]; [3]
  CI: Cardiac index: 4.025±0.685 ** 1/min/m²
  CO: Cardiac output: 2.751±0.438 * 1/min
  CPP: Coronary perfusion pressure: 50.5±5.5 mmHg
  CVP: Central venous pressure: 2.9±1.5 mmHg
  DAP: Diastolic artery pressure: 59.2±5.1 mmHg
  DPAP: Diastolic pulmonary artery pressure: 11.3±5.2 mmHg
  EtCO₂: Expiration terminal CO₂ pressure: 39.5±5.8 mmHg
  HR: Heart rate: 158.8±33.8 beat/min
  LV dp/dt max: maximum left ventricular systolic ratio: 3370.0±783.2 mmHg/sec
  LVEP: Left ventricle end pressure: 0.1±0.3 mmHg
  LVP: Left ventricle pressure: 119.5±16.3 mmHg
  LVSWI: Left ventricle stroke work index: 23.970±6.998 g.m/beat/m²
  MAP: Mean artery pressure: 75.7±4.3 mmHg
  MPAP: Mean pulmonary artery pressure: 18.3±6.0 mmHg
  PCWP: Pulmonary capillary wedge pressure: 9.2±4.1 mmHg
  PVR: Pulmonary vascular resistance: 273.30±100.09 dynes · sec/cm⁵
  RPP: Rate pressure products: 14920.0±3480.0 mmHg.beat/min
  RVSWI: Right ventricle stroke work index: 5.209±1.501 g.m/beat/m²
  SAP: Systolic artery pressure: 94.4±7.2 mmHg
  SI: Stroke index: 26.300±6.720 ml/HR/m²
  SPAP: Systolic pulmonary artery pressure: 26.8±7.2 mmHg
  SV: Stroke volumes: 18.2 ± 5.63 mL/beat
  SVR: Systemic vascular resistance: 2162.0±419.2 dynes · sec/cm⁵
[1]; [4]
  CI: Cardiac index: 3.638±0.587 1/min/m²
  CO: Cardiac output: 2.487 ± 0.378 min⁻¹
  CPP: Coronary perfusion pressure: 63.5±5.3 mmHg
  CVP: Central venous pressure: 3.2±1.1 mmHg
  DAP: Diastolic artery pressure: 74.1±4.7 mmHg
  DPAP: Diastolic pulmonary artery pressure: 11.3±5.4 mmHg
  EtCO₂: Expiration terminal CO₂ pressure: 39.3±5.9 mmHg
  HR: Heart rate: 151.6±27.9 beat/min
  LV dp/dt max: maximum left ventricular systolic ratio: 3220.0±708.4 mmHg/sec
  LVEP: Left ventricle end pressure: 0.0±0.0 mmHg
  LVP: Left ventricle pressure: 132.3±20.0 mmHg
  LVSWI: Left ventricle stroke work index: 27.680±7.370 g.m/beat/m²
  MAP: Mean artery pressure: 92.8±6.3 mmHg
  MPAP: Mean pulmonary artery pressure: 18.7±6.3 mmHg
  PCWP: Pulmonary capillary wedge pressure: 10.6±4.5 mmHg
  PVR: Pulmonary vascular resistance: 269.10±109.58 dynes · sec/cm⁵
  RPP: Rate pressure products: 18100.0±3938.4 mmHg.beat/min
  RVSWI: Right ventricle stroke work index: 4.882±1.138 g.m/beat/m²
  SAP: Systolic artery pressure: 119.4±10.1 mmHg
  SI: Stroke index: 24.760±6.720 ml/HR/m²
  SPAP: Systolic pulmonary artery pressure: 27.4±7.2 mmHg
  SV: Stroke volumes: 17 ± 5.07 mL/beat
  SVR: Systemic vascular resistance: 2961.0±700.9 dynes · sec/cm⁵
[1]; [5]
  CI: Cardiac index: 3.418±0.692 1/min/m²
  CO: Cardiac output: 2.348 ± 0.528 min⁻¹
  CPP: Coronary perfusion pressure: 38.3±4.5 mmHg
  CVP: Central venous pressure: 2.5±1.1 mmHg
  DAP: Diastolic artery pressure: 47.3±2.8 mmHg
  DPAP: Diastolic pulmonary artery pressure: 9.9±4.0 mmHg
  EtCO₂: Expiration terminal CO₂ pressure: 38.5±5.6 mmHg
  HR: Heart rate: 149.3±31.7 beat/min
  LV dp/dt max: maximum left ventricular systolic ratio: 3070.0±771.8 mmHg/sec
  LVEP: Left ventricle end pressure: 0.0±0.0 mmHg
  LVP: Left ventricle pressure: 102.7±14.1 mmHg
  LVSWI: Left ventricle stroke work index: 16.906±5.750 g.m/beat/m²
  MAP: Mean artery pressure: 60.4±0.7 mmHg
  MPAP: Mean pulmonary artery pressure: 15.6±5.3 mmHg
  PCWP: Pulmonary capillary wedge pressure: 9.0±4.0 mmHg
  PVR: Pulmonary vascular resistance: 231.10±80.62 dynes · sec/cm⁵
  RPP: Rate pressure products: 11357.0±2260.5 mmHg.beat/min
  RVSWI: Right ventricle stroke work index: 3.979±1.239 g.m/beat/m²
  SAP: Systolic artery pressure: 76.5±4.8 mmHg
  SI: Stroke index: 23.810±6.952 ml/HR/m²
  SPAP: Systolic pulmonary artery pressure: 23.0±6.2 mmHg
  SV: Stroke volumes: 16.5 ± 5.78 mL/beat
  SVR: Systemic vascular resistance: 2054.0±455.6 dynes · sec/cm⁵
[1]; [6]
  CI: Cardiac index: 4.006 ±0.771 ** 1/min/m²
  CO: Cardiac output: 2.739 ±0.518 * 1/min
  CPP: Coronary perfusion pressure: 38.3±4.9 mmHg
  CVP: Central venous pressure: 2.2±1.2 mmHg
  DAP: Diastolic artery pressure: 47.7±2.6 mmHg
  DPAP: Diastolic pulmonary artery pressure: 11.3±4.9 mmHg
  EtCO₂: Expiration terminal CO₂ pressure: 39.8±6.9 mmHg
  HR: Heart rate: 154.3 ± 33.8 beat/min
  LV dp/dt max: maximum left ventricular systolic ratio: 3210.0±749.0 mmHg/sec
  LVEP: Left ventricle end pressure: 0.0±0.0 mmHg
  LVP: Left ventricle pressure: 104.7±16.3 mmHg
  LVSWI: Left ventricle stroke work index: 18.949±6.280 g.m/beat/m²
  MAP: Mean artery pressure: 60.1±0.9 mmHg
  MPAP: Mean pulmonary artery pressure: 17.7±5.9 mmHg
  PCWP: Pulmonary capillary wedge pressure: 9.4±4.7 mmHg
  PVR: Pulmonary vascular resistance: 251.20±97.14 dynes · sec/cm⁵
  RPP: Rate pressure products: 11462.0±2765.1 mmHg.beat/min
  RVSWI: Right ventricle stroke work index: 5.380±1.747 g.m/beat/m²
  SAP: Systolic artery pressure: 74.4±4.9 mmHg
  SI: Stroke index: 27.030 ±7.664 ml/HR/m²
  SPAP: Systolic pulmonary artery pressure: 25.5±7.3 mmHg
  SV: Stroke volumes: 18.5 ± 5.94 mL/beat
  SVR: Systemic vascular resistance: 1748.0±409.1 dynes · sec/cm⁵
[2]; [7]
  HR: Heart rate: 103 beats/min
  MAP: Mean artery pressure: 104.8 ±2.7 mmHg
[2]; [8]
  HR: Heart rate: 104±2.8 beat/min
  MAP: Mean artery pressure: 184±4.9 mmHg
